Measurements published in patent US20200002377A1, “COMPOUNDS USEFUL FOR THE TREATMENT AND/OR CARE OF THE SKIN, HAIR, NAILS AND/OR MUCOUS MEMBRANES” (LUBRIZOL ADVANCED MATERIALS, INC., priority 2016, published 2020).
Residues, ends and D or L forms follow the SMILES beside them. *: point of attachment. Palmitoyl = CCCCCCCCCCCCCCCC(=O)*; NHhexadecyl = CCCCCCCCCCCCCCCCN*; Myristoyl = CCCCCCCCCCCCCC(=O)*; NHHex = CCCCCCN*

Legend:
[1] = tested on: Staphylococcus epidermidis; experiment: Adherence of Staphylococcus epidermidis in keratinocytes (HaCaT) in competition with S. aureus bioparticles; type: cell-based; settings: 50 μg/ml, 24 h, basal = 0
Method: After that treatment, cells are washed with phosphate-buffered saline (PBS, Sigma) and are then incubated with a solution of Staphylococcus epidermidis (ATCC®12228™, Culture Collections) treated with green-fluorescence calcein AM (Life technologic) and Alexa Fluor 594™ Bioparticles Staphylococcus aureus (ThermoFisher) in PBS for 30 minutes at 37° C. and protected from light. At the end of the incubation period, cells are washed with PBS and fixed in 4% (v/v) paraformaldehyde (PFA, Sigma) for 30 minutes. After rinsing with PBS, the nuclei are stained with Hoechst 33342, trihydrochloride trihydrate (ThermoFisher) in PBS for 10 minutes before analysis.
Cellular imaging is performed by fluorescence microscopy using the Operetta® High Content Imaging System (PerkinElmer). From each fluorescence image, Staphylococcus epidermidis is quantified as a number of spots and normalized against the number of keratinocyte nuclei and the total bacteria number (understood as the addition of detected S. epidermidis spots and S. aureus bioparticles). Each value obtained is normalized respect to basal conditions (non-treated keratinocytes). An image is taken in three different fields per well. 12 representative images from each condition are analyzed with Harmony software (PerkinElmer).
The normalized percentage of Staphylococcus epidermidis respect to basal conditions in treated keratinocytes is represented in Table 17.

[2] = tested on: Nuclear Factor Kappa B subunit 1 (NFKB1); experiment: Innate immune response gene expression in HEKa, real time PCR array; type: cell-based, human; settings: 50 μg/ml, 24 h

## Ac-EEMERRAD-OH [PEP-31, Ac-Glu-Glu-Met-Glu-Arg-Arg-Ala-Asp-OH]
[1]
  S. epidermidis (%), normalized percentage respect to basal conditions: 29.41%
[2]
  NFKB1 fold induction respect to basal conditions: 2.24

## Ac-EEMERR-NH2 [PEP-47, Ac-Glu-Glu-Met-Glu-Arg-Arg-NH2]
[1]
  S. epidermidis (%), normalized percentage respect to basal conditions: 2.91%
[2]
  NFKB1 fold induction respect to basal conditions: 2.12

## H-Glu-Glu-Met-Gln-Arg-Arg-NHC16H33 (H-EEMQRR-NHhexadecyl) [PEP-67]
[1]
  S. epidermidis (%), normalized percentage respect to basal conditions: 14.91%

## CCCCCCCCCCCCCCCC(=O)N[C@@H](CCC(=O)O)C(=O)N[C@@H](CCC(=O)O)C(=O)N[C@@H](CCSC)C(=O)N[C@@H](CCC(N)=O)C(=O)N[C@@H](CCCNC(=N)N)C(=O)N[C@@H](CCCNC(=N)N)C(N)=O [PEP-6, Palm-Glu-Glu-Met-Gln-Arg-Arg-NH2] (Palmitoyl-EEMQRR-NH2)
[1]
  S. epidermidis (%), normalized percentage respect to basal conditions: 29.75%
[2]
  NFKB1 fold induction respect to basal conditions: 2.62

## CCCCCCCCCCCCCCCC(=O)N[C@@H](CCC(=O)O)C(=O)N[C@@H](CCC(=O)O)C(=O)N[C@@H](CCSC)C(=O)N[C@@H](CCC(N)=O)C(=O)N[C@@H](CCCNC(=N)N)C(=O)N[C@@H](CCCNC(=N)N)C(=O)N[C@@H](C)C(=O)N[C@@H](CC(N)=O)C(=O)O [PEP-33, Palm-Glu-Glu-Met-Gln-Arg-Arg-Ala-Asn-OH] (Palmitoyl-EEMQRRAN-OH)
[1]
  S. epidermidis (%), normalized percentage respect to basal conditions: 58.74%
[2]
  NFKB1 fold induction respect to basal conditions: 2.63

## Ac-EEMQRRSD-NH2 [PEP-15, Ac-Glu-Glu-Met-Gln-Arg-Arg-Ser-Asp-NH2]
[1]
  S. epidermidis (%), normalized percentage respect to basal conditions: 15.10%
[2]
  NFKB1 fold induction respect to basal conditions: 2.57

## Ac-EDMQRR-NH2 [PEP-49, Ac-Glu-Asp-Met-Gln-Arg-Arg-NH2]
[1]
  S. epidermidis (%), normalized percentage respect to basal conditions: 5.86%
[2]
  NFKB1 fold induction respect to basal conditions: 1.55

## H-EEMQRRAE-NH2 [PEP-26, H-Glu-Glu-Met-Gln-Arg-Arg-Ala-Glu-NH2]
[1]
  S. epidermidis (%), normalized percentage respect to basal conditions: 18.10%
[2]
  NFKB1 fold induction respect to basal conditions: 2.55

## CCCCCCNC(=O)[C@H](CCCNC(=N)N)NC(=O)[C@H](CCCNC(=N)N)NC(=O)[C@H](CCC(N)=O)NC(=O)[C@H](CCSC)NC(=O)[C@H](CCC(=O)O)NC(=O)[C@H](CCC(=O)O)NC(C)=O [PEP-64, Ac-Glu-Glu-Met-Gln-Arg-Arg-NHC6H13] (Ac-EEMQRR-NHHex)
[2]
  NFKB1 fold induction respect to basal conditions: 1.75

## Ac-EEMQRRS-NH2 [PEP-37, Ac-Glu-Glu-Met-Gln-Arg-Arg-Ser-NH2]
[1]
  S. epidermidis (%), normalized percentage respect to basal conditions: 7.49%
[2]
  NFKB1 fold induction respect to basal conditions: 2.88

## Ac-EEMQRH-NH2 [PEP-53, Ac-Glu-Glu-Met-Gln-Arg-His-NH2]
[2]
  NFKB1 fold induction respect to basal conditions: 3.37

## Ac-Glu-Glu-Leu-Gln-Arg-Arg-NH2 (Ac-EELQRR-NH2) [PEP-66]
[1]
  S. epidermidis (%), normalized percentage respect to basal conditions: 45.38%

## Ac-EEMQRRTD-NH2 [PEP-21, Ac-Glu-Glu-Met-Gln-Arg-Arg-Thr-Asp-NH2]
[1]
  S. epidermidis (%), normalized percentage respect to basal conditions: 16.21%
[2]
  NFKB1 fold induction respect to basal conditions: 2.39

## Ac-EELQRRAD-NH2 [PEP-10, Ac-Glu-Glu-Leu-Gln-Arg-Arg-Ala-Asp-NH2]
[1]
  S. epidermidis (%), normalized percentage respect to basal conditions: 11.54%
[2]
  NFKB1 fold induction respect to basal conditions: 2.46

## Ac-EEMQRRAE-OH [PEP-30, Ac-Glu-Glu-Met-Gln-Arg-Arg-Ala-Glu-OH]
[2]
  NFKB1 fold induction respect to basal conditions: 2.53

## CCCCCCCCCCCCCC(=O)N[C@@H](CCC(=O)O)C(=O)N[C@@H](CCC(=O)O)C(=O)N[C@@H](CCSC)C(=O)N[C@@H](CCC(N)=O)C(=O)N[C@@H](CCCNC(=N)N)C(=O)N[C@@H](CCCNC(=N)N)C(N)=O [PEP-5, Myr-Glu-Glu-Met-Gln-Arg-Arg-NH2] (Myristoyl-EEMQRR-NH2)
[1]
  S. epidermidis (%), normalized percentage respect to basal conditions: 27.52%
[2]
  NFKB1 fold induction respect to basal conditions: 2.64

## Ac-EEMDRRAD-NH2 [PEP-13, Ac-Glu-Glu-Met-Asp-Arg-Arg-Ala-Asp-NH2]
[1]
  S. epidermidis (%), normalized percentage respect to basal conditions: 21.79%
[2]
  NFKB1 fold induction respect to basal conditions: 2.60

## Ac-EEMQRRPD-NH2 [PEP-22, Ac-Glu-Glu-Met-Gln-Arg-Arg-Pro-Asp-NH2]
[1]
  S. epidermidis (%), normalized percentage respect to basal conditions: 81.90%
[2]
  NFKB1 fold induction respect to basal conditions: 2.69

## CCCCCCCCCCCCCC(=O)N[C@@H](CCC(=O)O)C(=O)N[C@@H](CCC(=O)O)C(=O)N[C@@H](CCSC)C(=O)N[C@@H](CCC(N)=O)C(=O)N[C@@H](CCCNC(=N)N)C(=O)N[C@@H](CCCCN)C(N)=O [PEP-60, Myr-Glu-Glu-Met-Gln-Arg-Lys-NH2] (Myristoyl-EEMQRK-NH2)
[1]
  S. epidermidis (%), normalized percentage respect to basal conditions: 24.84%
[2]
  NFKB1 fold induction respect to basal conditions: 1.26

## Ac-EEMNRRAD-NH2 [PEP-12, Ac-Glu-Glu-Met-Asn-Arg-Arg-Ala-Asp-NH2]
[1]
  S. epidermidis (%), normalized percentage respect to basal conditions: 14.00%
[2]
  NFKB1 fold induction respect to basal conditions: 2.58

## Ac-EEMQRRT-NH2 [PEP-41, Ac-Glu-Glu-Met-Gln-Arg-Arg-Thr-NH2]
[1]
  S. epidermidis (%), normalized percentage respect to basal conditions: 35.69%
[2]
  NFKB1 fold induction respect to basal conditions: 2.71

## Ac-EEMQKK-NH2 [PEP-54, Ac-Glu-Glu-Met-Gln-Lys-Lys-NH2]
[1]
  S. epidermidis (%), normalized percentage respect to basal conditions: 10.91%
[2]
  NFKB1 fold induction respect to basal conditions: 2.15

## CCCCCCCCCCCCCCCC(=O)N[C@@H](CCC(=O)O)C(=O)N[C@@H](CCC(=O)O)C(=O)N[C@@H](CCSC)C(=O)N[C@@H](CCC(N)=O)C(=O)N[C@@H](CCCNC(=N)N)C(=O)N[C@@H](CCCNC(=N)N)C(=O)N[C@@H](C)C(=O)N[C@@H](CC(=O)O)C(N)=O [PEP-27, Palm-Glu-Glu-Met-Gln-Arg-Arg-Ala-Asp-NH2] (Palmitoyl-EEMQRRAD-NH2)
[1]
  S. epidermidis (%), normalized percentage respect to basal conditions: 27.62%
[2]
  NFKB1 fold induction respect to basal conditions: 2.76

## Ac-EEMQKR-NH2 [PEP-46, Ac-Glu-Glu-Met-Gln-Lys-Arg-NH2]
[1]
  S. epidermidis (%), normalized percentage respect to basal conditions: 3.97%
[2]
  NFKB1 fold induction respect to basal conditions: 2.03

## Ac-EEMNRR-NH2 [PEP-48, Ac-Glu-Glu-Met-Asn-Arg-Arg-NH2]
[1]
  S. epidermidis (%), normalized percentage respect to basal conditions: 18.02%
[2]
  NFKB1 fold induction respect to basal conditions: 1.48

## Ac-EEMQRRAN-NH2 [PEP-18, Ac-Glu-Glu-Met-Gln-Arg-Arg-Ala-Asn-NH2]
[1]
  S. epidermidis (%), normalized percentage respect to basal conditions: 26.35%
[2]
  NFKB1 fold induction respect to basal conditions: 2.69

## Ac-EEMQRRAE-NH2 [PEP-17, Ac-Glu-Glu-Met-Gln-Arg-Arg-Ala-Glu-NH2]
[1]
  S. epidermidis (%), normalized percentage respect to basal conditions: 11.33%
[2]
  NFKB1 fold induction respect to basal conditions: 2.32

## CCCCCCCCCCCCCCCCNC(=O)[C@H](CC(=O)O)NC(=O)[C@H](C)NC(=O)[C@H](CCCNC(=N)N)NC(=O)[C@H](CCCNC(=N)N)NC(=O)[C@H](CCC(N)=O)NC(=O)[C@H](CCSC)NC(=O)[C@H](CCC(=O)O)NC(=O)[C@H](CCC(=O)O)NC(C)=O [PEP-35, Ac-Glu-Glu-Met-Gln-Arg-Arg-Ala-Asp-NHC16H33] (Ac-EEMQRRAD-NHhexadecyl)
[1]
  S. epidermidis (%), normalized percentage respect to basal conditions: 90.22%
[2]
  NFKB1 fold induction respect to basal conditions: 2.79

## Ac-EEMQRK-NH2 [PEP-45, Ac-Glu-Glu-Met-Gln-Arg-Lys-NH2]
[1]
  S. epidermidis (%), normalized percentage respect to basal conditions: 5.48%
[2]
  NFKB1 fold induction respect to basal conditions: 2.21

## Ac-QEMQRRAD-NH2 [PEP-9, Ac-Gln-Glu-Met-Gln-Arg-Arg-Ala-Asp-NH2]
[1]
  S. epidermidis (%), normalized percentage respect to basal conditions: 21.36%
[2]
  NFKB1 fold induction respect to basal conditions: 2.66

## H-EEMQRRAN-NH2 [PEP-25, H-Glu-Glu-Met-Gln-Arg-Arg-Ala-Asn-NH2]
[2]
  NFKB1 fold induction respect to basal conditions: 2.31

## Ac-EEMQRRV-NH2 [PEP-44, Ac-Glu-Glu-Met-Gln-Arg-Arg-Val-NH2]
[2]
  NFKB1 fold induction respect to basal conditions: 1.24

## CCCCCCCCCCCCCCCCNC(=O)[C@H](CCCNC(=N)N)NC(=O)[C@H](CCCNC(=N)N)NC(=O)[C@H](CCC(N)=O)NC(=O)[C@H](CCSC)NC(=O)[C@H](CCC(=O)O)NC(=O)[C@H](CCC(=O)O)NC(C)=O [PEP-7, Ac-Glu-Glu-Met-Gln-Arg-Arg-NHC16H33] (Ac-EEMQRR-NHhexadecyl)
[1]
  S. epidermidis (%), normalized percentage respect to basal conditions: 11.43%
[2]
  NFKB1 fold induction respect to basal conditions: 3.09

## CCCCCCCCCCCCCCCC(=O)N[C@@H](CCC(=O)O)C(=O)N[C@@H](CCC(=O)O)C(=O)N[C@@H](CCSC)C(=O)N[C@@H](CCC(N)=O)C(=O)N[C@@H](CCCNC(=N)N)C(=O)N[C@@H](Cc1c[nH]cn1)C(N)=O [PEP-58, Palm-Glu-Glu-Met-Gln-Arg-His-NH2] (Palmitoyl-EEMQRH-NH2)
[2]
  NFKB1 fold induction respect to basal conditions: 1.87

## Ac-EEMQRRG-NH2 [PEP-38, Ac-Glu-Glu-Met-Gln-Arg-Arg-Gly-NH2]
[1]
  S. epidermidis (%), normalized percentage respect to basal conditions: 49.00%
[2]
  NFKB1 fold induction respect to basal conditions: 2.40

## CCCCCCNC(=O)[C@H](CCCNC(=N)N)NC(=O)[C@H](CCCNC(=N)N)NC(=O)[C@H](CCC(N)=O)NC(=O)[C@H](CCSC)NC(=O)[C@H](CCC(=O)O)NC(=O)[C@@H](N)CCC(=O)O [PEP-65, H-Glu-Glu-Met-Gln-Arg-Arg-NCH6H13] (H-EEMQRR-NHHex)
[2]
  NFKB1 fold induction respect to basal conditions: 2.41

## Ac-QEMQRR-NH2 [PEP-52, Ac-Gln-Glu-Met-Gln-Arg-Arg-NH2]
[2]
  NFKB1 fold induction respect to basal conditions: 2.57

## Ac-EELQRR-OH [PEP-63, Ac-Glu-Glu-Leu-Gln-Arg-Arg-OH]
[2]
  NFKB1 fold induction respect to basal conditions: 1.50
